Experimental data: article doi:10.1101/2024.08.13.607785v1 (biorxiv, 2024)
Values belong to the compound of their own block, whether it stands above or below them.

How the values were obtained:
[1] = target: Cyclin-dependent-like kinase 5 ; CDK5 ; Q00535 (Homo sapiens, UniProt Q00535); experiment: biochemical; design: species or system human cell line lysate
[2] = target: Cyclin-dependent kinase 7 ; CDK7 ; P50613 (Homo sapiens, UniProt P50613); experiment: biochemical; design: species or system human cell line lysate
[3] = target: T1, Ephrin type-B receptor 2 ; EPHB2 ; P29323 (Homo sapiens, UniProt P29323); design: species or system mixed lysate of K562, MV4-11, THP-1, NCI-H1155; conditions: DDA-MS residual binding; binder
T1 sequence (P29323 1-1055): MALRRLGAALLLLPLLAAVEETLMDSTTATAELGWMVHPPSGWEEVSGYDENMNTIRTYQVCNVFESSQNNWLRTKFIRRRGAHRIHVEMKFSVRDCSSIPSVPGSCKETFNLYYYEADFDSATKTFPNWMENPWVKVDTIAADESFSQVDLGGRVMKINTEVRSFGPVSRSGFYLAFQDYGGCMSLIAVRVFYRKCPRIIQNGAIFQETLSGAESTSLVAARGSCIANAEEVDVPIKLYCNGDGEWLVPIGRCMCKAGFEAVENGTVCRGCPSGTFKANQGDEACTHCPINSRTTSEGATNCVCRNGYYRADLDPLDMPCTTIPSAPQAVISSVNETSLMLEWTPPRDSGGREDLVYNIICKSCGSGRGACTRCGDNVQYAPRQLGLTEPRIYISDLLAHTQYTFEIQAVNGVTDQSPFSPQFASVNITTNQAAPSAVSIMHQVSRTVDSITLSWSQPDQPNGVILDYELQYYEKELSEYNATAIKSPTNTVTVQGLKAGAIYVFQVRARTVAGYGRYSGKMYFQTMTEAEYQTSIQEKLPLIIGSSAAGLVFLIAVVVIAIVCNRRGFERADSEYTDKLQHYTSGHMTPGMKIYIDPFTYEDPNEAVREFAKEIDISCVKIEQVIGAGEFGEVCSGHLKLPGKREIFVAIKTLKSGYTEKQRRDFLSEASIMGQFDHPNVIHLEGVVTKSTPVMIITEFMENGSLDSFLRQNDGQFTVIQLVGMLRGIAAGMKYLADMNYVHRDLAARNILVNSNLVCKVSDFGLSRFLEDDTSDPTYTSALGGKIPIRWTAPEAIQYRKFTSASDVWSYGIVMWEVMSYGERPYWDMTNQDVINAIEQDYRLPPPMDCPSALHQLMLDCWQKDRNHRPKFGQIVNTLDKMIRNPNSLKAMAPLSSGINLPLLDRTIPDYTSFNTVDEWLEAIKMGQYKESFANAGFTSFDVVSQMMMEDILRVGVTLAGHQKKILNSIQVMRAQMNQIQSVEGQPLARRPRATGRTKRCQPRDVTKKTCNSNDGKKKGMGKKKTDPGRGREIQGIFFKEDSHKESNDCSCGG

[4] = target: T2, Discoidin domain-containing receptor 2 ; DDR2 ; Q16832 (Homo sapiens, UniProt Q16832); experiment: biochemical; design: species or system human cell line lysate
T2 sequence (Q16832 1-855): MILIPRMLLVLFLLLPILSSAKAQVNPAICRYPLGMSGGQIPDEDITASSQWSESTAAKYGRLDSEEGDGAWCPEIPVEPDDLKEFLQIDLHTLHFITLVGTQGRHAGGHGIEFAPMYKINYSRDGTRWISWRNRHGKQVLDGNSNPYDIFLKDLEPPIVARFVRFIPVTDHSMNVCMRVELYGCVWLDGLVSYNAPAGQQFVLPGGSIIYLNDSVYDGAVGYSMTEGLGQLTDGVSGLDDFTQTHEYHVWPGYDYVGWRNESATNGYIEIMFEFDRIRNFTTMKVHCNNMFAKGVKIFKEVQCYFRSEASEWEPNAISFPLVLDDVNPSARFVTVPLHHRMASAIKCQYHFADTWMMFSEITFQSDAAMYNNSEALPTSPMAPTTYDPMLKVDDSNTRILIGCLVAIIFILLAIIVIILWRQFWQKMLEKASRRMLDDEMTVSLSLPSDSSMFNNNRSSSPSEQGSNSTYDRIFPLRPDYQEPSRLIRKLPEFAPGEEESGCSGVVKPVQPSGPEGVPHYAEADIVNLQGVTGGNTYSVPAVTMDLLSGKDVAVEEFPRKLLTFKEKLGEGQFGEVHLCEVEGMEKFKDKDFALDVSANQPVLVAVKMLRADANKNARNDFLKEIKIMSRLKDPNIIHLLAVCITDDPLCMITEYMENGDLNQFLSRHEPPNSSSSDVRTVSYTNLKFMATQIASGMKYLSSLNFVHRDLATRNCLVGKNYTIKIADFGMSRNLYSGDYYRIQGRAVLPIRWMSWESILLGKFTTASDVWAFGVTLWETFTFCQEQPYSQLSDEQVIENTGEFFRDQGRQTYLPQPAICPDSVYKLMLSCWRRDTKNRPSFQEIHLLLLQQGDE

[5] = target: Cyclin-dependent kinase 16 ; CDK16 ; Q00536 (Homo sapiens, UniProt Q00536); experiment: biochemical; design: species or system human cell line lysate
[6] = target: Calcium/calmodulin-dependent protein kinase kinase 2 ; CAMKK2 ; Q96RR4 (Homo sapiens, UniProt Q96RR4); experiment: biochemical; design: species or system human cell line lysate
[7] = target: Isoform 4 of TRAF2 and NCK-interacting protein kinase ; TNIK ; Q9UKE5-4 (Homo sapiens, UniProt Q9UKE5); experiment: biochemical; design: species or system human cell line lysate
[8] = target: Epithelial discoidin domain-containing receptor 1 ; DDR1 ; Q08345 (Homo sapiens, UniProt Q08345); experiment: biochemical; design: species or system human cell line lysate
[9] = target: High affinity nerve growth factor receptor ; NTRK1 ; P04629 (Homo sapiens, UniProt P04629); experiment: biochemical; design: species or system human cell line lysate
Sequence of High affinity nerve growth factor receptor ; NTRK1 ; P04629 (P04629 whole entry): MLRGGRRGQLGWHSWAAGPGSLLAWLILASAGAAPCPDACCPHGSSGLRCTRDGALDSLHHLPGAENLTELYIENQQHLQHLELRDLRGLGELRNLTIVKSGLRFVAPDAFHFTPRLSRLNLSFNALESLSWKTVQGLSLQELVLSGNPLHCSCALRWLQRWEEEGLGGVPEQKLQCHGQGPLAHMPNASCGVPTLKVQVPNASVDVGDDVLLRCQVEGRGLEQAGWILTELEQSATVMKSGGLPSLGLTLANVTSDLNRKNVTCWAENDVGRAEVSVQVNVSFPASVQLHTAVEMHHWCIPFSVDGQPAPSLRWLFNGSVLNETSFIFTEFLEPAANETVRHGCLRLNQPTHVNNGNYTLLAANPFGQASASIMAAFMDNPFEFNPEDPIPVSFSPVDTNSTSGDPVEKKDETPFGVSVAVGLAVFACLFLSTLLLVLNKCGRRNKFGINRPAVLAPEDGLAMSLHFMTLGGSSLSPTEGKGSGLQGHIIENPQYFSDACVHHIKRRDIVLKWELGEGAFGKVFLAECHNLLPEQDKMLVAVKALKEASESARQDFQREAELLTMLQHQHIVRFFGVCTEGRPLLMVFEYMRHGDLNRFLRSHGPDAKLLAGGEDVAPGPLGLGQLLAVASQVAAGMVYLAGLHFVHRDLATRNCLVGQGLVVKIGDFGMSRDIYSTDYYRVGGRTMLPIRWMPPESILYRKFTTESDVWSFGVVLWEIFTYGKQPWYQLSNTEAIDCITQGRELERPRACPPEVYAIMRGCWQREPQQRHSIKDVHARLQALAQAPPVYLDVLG

Sequence of Cyclin-dependent kinase 7 ; CDK7 ; P50613 (P50613 whole entry, one chain of several): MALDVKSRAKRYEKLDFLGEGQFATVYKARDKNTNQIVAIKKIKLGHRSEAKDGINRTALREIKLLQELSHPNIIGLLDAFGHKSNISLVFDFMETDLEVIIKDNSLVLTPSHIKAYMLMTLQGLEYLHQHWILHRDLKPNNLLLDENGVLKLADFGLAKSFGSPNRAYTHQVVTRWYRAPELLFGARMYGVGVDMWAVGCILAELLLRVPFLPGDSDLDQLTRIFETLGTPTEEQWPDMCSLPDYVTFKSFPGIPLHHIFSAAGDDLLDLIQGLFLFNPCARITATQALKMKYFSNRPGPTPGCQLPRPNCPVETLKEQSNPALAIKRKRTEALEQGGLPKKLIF
Sequence of Isoform 4 of TRAF2 and NCK-interacting protein kinase ; TNIK ; Q9UKE5-4 (Q9UKE5 whole entry, the tested form may be a part, canonical isoform, one chain of several): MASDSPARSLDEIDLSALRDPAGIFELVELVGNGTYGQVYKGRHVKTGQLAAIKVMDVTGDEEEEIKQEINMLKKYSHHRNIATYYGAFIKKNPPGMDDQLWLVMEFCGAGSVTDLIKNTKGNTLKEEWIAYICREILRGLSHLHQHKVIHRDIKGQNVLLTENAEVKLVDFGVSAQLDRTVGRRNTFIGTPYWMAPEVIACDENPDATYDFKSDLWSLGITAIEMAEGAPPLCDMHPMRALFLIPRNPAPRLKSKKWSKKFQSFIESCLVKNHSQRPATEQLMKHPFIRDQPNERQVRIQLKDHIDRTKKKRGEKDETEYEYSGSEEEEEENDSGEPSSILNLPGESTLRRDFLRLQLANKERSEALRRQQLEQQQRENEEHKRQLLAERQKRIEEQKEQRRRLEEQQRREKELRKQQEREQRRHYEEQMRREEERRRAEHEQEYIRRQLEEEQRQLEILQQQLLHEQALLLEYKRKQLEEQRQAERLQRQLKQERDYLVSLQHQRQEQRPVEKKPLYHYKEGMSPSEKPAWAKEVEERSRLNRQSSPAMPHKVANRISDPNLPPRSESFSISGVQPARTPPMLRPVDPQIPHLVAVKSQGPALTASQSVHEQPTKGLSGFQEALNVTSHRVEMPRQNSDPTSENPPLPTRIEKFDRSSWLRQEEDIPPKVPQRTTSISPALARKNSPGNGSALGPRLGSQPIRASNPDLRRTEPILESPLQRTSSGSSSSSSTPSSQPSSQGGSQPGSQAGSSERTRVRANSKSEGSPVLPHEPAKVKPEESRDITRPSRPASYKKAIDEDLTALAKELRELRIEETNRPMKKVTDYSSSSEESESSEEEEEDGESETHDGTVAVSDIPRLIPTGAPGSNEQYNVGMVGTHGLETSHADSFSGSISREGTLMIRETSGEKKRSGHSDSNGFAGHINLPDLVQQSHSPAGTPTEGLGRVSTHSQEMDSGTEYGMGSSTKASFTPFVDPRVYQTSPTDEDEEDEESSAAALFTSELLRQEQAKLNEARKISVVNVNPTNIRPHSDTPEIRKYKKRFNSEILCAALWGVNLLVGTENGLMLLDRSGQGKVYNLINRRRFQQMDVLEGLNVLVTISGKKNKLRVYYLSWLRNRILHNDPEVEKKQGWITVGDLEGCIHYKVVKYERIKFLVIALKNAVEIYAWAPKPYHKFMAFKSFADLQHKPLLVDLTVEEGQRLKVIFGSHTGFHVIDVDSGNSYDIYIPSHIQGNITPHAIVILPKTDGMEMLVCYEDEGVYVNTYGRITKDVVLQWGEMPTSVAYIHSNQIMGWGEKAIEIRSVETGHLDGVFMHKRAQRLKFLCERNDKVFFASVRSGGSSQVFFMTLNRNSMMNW
Sequence of Cyclin-dependent kinase 16 ; CDK16 ; Q00536 (Q00536 whole entry, one chain of several): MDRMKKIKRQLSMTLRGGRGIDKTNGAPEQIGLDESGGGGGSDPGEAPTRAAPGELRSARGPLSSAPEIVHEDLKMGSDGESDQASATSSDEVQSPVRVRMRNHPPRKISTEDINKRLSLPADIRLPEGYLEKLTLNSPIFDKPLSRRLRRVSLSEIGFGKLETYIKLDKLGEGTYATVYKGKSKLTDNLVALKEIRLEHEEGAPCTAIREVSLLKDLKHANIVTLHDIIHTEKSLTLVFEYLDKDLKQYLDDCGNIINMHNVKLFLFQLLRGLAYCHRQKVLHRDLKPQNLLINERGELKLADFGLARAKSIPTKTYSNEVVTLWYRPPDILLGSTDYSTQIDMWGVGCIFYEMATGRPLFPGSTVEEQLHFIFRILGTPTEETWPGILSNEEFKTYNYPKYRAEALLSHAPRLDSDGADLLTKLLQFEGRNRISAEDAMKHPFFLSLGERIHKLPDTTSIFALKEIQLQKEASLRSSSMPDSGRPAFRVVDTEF
Sequence of Cyclin-dependent-like kinase 5 ; CDK5 ; Q00535 (Q00535 whole entry, one chain of several): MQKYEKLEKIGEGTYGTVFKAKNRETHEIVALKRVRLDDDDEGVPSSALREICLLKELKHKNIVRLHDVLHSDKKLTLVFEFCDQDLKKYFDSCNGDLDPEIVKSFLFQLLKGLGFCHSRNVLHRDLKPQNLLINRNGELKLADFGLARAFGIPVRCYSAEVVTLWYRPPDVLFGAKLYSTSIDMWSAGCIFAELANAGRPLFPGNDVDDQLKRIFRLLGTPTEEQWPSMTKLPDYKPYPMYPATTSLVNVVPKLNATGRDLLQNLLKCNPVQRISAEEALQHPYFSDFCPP
Sequence of Epithelial discoidin domain-containing receptor 1 ; DDR1 ; Q08345 (Q08345 whole entry, the tested form may be a part): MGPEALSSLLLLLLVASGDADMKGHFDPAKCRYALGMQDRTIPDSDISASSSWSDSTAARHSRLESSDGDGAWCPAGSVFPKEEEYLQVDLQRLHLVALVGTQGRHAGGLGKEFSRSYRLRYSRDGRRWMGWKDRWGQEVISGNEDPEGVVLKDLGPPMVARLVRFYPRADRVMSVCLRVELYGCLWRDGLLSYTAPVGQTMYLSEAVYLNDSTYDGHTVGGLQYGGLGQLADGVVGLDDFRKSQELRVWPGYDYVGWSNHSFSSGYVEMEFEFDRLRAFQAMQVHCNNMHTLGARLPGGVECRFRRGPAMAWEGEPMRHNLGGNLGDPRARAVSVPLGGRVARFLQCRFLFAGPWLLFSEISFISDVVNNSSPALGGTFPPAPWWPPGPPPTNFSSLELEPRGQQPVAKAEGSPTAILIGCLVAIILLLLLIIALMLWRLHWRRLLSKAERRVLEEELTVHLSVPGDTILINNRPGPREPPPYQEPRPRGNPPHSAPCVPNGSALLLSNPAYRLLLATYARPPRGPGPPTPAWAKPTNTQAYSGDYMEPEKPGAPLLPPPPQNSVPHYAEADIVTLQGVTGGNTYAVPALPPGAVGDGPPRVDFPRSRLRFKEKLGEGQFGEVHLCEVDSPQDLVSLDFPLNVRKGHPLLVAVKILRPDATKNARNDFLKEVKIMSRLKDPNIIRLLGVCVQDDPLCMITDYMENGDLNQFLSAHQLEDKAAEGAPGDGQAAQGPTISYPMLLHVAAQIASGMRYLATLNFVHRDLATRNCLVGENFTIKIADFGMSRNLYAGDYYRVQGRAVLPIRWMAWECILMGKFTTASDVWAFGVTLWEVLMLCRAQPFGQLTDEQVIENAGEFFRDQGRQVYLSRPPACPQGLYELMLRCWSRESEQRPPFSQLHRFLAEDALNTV
Sequence of Calcium/calmodulin-dependent protein kinase kinase 2 ; CAMKK2 ; Q96RR4 (Q96RR4 whole entry, canonical isoform, one chain of several): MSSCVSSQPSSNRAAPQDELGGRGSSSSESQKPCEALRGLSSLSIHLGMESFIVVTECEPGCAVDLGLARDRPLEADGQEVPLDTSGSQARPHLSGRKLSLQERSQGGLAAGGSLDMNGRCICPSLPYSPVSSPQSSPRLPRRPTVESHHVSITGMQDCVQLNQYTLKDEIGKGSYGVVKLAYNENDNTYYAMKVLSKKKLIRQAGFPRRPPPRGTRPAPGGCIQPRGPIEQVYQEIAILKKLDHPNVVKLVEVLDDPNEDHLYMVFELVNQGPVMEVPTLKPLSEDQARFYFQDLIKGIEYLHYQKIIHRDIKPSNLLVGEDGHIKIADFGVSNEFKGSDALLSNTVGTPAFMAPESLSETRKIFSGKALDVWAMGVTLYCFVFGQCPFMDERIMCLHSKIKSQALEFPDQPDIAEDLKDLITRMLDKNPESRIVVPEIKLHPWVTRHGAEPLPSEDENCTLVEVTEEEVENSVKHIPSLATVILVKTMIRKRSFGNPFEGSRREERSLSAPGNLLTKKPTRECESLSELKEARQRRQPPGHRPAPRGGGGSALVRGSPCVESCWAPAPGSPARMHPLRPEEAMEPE

IC50 [1]: > 10 µM
IC50 [2]: > 10 µM
Compound: COc1cc(F)ccc1-c1cc(Nc2cc(CS(C)(=N)=O)ccn2)ncc1F (stereo not drawn) [BAY-1251152]

DDA-MS / % Intensity (30 µM/DMSO) [3]: 7.218%
Compound: Cc1nc(Nc2ncc(C(=O)Nc3c(C)cccc3Cl)s2)cc(N2CCN(CCO)CC2)n1 [dasatinib]

IC50 [4]: > 10 µM
IC50 [5]: > 10 µM
IC50 [6]: > 10 µM
IC50 [7]: > 10 µM
IC50 [8]: > 10 µM
IC50 [9]: > 10 µM
Compound: COc1cc(F)ccc1-c1ncnc(Nc2cccc(C[S@](C)(=N)=O)c2)n1 [BAY-1143572]
